Assays:
[1] = Compressive (bulk) modulus of hydrogel; assay type: physicochemical, porcine; settings: compression, FIG. 2E
Protocol: The compressive modulus measurements were performed using a Discovery HR-3 Hybrid Rheometer (TA Instruments, DE) with a 20 mm diameter parallel plate geometry and a Peltier plate to maintain the sample temperature. Bulk modulus tests were performed by compressing the samples at a fixed rate of 100 μm s^−1.
Alongside the rheological testing, the bulk mechanical properties of the hydrogel were also assessed. Samples were compressed, and the linear elastic modulus was calculated. Data are presented as mean±SD, n=3.

[2] = previous studies; cells added after crosslinking; cited from earlier work
[3] = Rheological testing, shear thinning of hydrogel; assay type: physicochemical, porcine; settings: 37° C., FIG. 2D
Protocol: Rheological measurements were performed using a Discovery HR-3 Hybrid Rheometer (TA Instruments, DE) with a 20 mm diameter parallel plate geometry and a Peltier plate to maintain the sample temperature. Shear thinning experiments were performed by varying the strain rate while maintaining a fixed strain of 20%.
The mechanical properties of an exemplary native ECM-based hydrogel and of cross-linked hydrogels were assessed by rheological measurements. Shear thinning Measurements were conducted at 37° C. Data are presented as mean±SD, n=3. P-values were calculated using a Comparison of Fits test with an Extra Sum of Squares F-test.

[4] = ninhydrin absorbance normalized to control, FIG. 2F
Protocol: Aliquots of hydrogel (1 mL) were taken and either reacted with SOx or used as a control. Samples were lyophilized and then immersed in a 0.05% acetic acid solution (1 mL). To this was added 2% Ninhydrin in ethanol (w/v) (1 mL). The mixture was boiled for 90 minutes. Aliquots were taken and the absorbance of the solution was recorded at 570 nm (Infinite M200 Pro; Tecan, Switzerland).
To determine the ability of SOx to react with an ECM-based hydrogel, the concentration of amine groups present in the ECM before and after exposure to the Sox was assessed. […] Data are presented as mean±SD, n=4. All values were normalized to the average value of the control group. P-values were calculated using a one-tailed, unpaired, parametric t-test assuming that all samples have the same distribution.

[5] = test system: Primary human umbilical vein endothelial cells (HUVECs); assay: Cell viability of HUVECs in 2D culture with SOx (PrestoBlue); assay type: cell-based; settings: SOx concentrations lower than 0.1% in the culturing medium, 48 hours, FIG. 2C
Protocol: Primary human umbilical vein endothelial cells (HUVECs) (Angio-Proteomie) were maintained in Endothelial Growth Medium (EGM-2) (Lonza) supplemented with an additional 1.5% (v/v) fetal bovine serum (FBS) (Biological Industries). Daily, PrestoBlue™ Cell Viability Reagent (Invitrogen) was added and cells were incubated for a fixed time interval. The medium was then transferred to a clean, opaque tissue culture well plate and fresh medium was added to the cells. The fluorescence was measured at 560/590 nm (Infinite M200 Pro).
Cells were incubated for 48 hours in 2D culture in order to allow toxic effects to become discernable. Data are presented in FIG. 2C as mean±standard deviation (SD), n=4.

Oxidized sucrose [SOx]
hydrogel bulk modulus (linear elastic modulus) with and without exposure to SOx [1]: significant reinforcement of the hydrogel | toxicity when used to cross-link non-cellularized scaffolds [2]: reduced toxicity profile | gel viscosity, further change when increasing the SOx concentration ([3]; SOx raised from 0.03% to 0.07%): smaller increase | gel viscosity versus control gel ([3]; hydrogel cross-linked with 0.03% SOx): large increase in gel viscosity | amines of the hydrogel that had reacted with the cross-linker [4]: 46% | impact on cell viability [5]: no impact on cell viability

Source: patent US20250361480A1, “REINFORCED ENGINEERED CELLULARIZED-TISSUE” (Ramot at Tel-Aviv University Ltd., priority 2023, published 2025)
